In US20220054445A1, “THERAPEUTIC METHODS AND COMPOSITIONS FOR TREATING CANCER USING 6,8-BIS-BENZYLTHIO-OCTANOIC ACID AND AN AUTOPHAGY INHIBITOR” (Rafael Pharmaceuticals, Inc., priority 2018, published 2022):

Experiments:
K562 and MFL2 AML cells = assay: LC3-II blot for induction of autophagy in AML cells; type: cell-based; conditions: CPI-613 200 μM, 4 hours
Source text: Complete media (“Full”) and Hank's Balanced Salt Solution medium (HBSS) were used as negative and positive controls of autophagy, respectively.

HS-MM cells [1] = assay: DALGreen autophagy detection in HS-MM cells; type: cell-based; conditions: 16 hours
Procedure: HS-MM cells (Sonobe H. et al., J. Pathol., 1993, 169, 317-322; Sonobe H. et al., J. Pathol., 1999, 187, 594-597) were cultured with Dulbecco's modified Eagle's medium (DMEM; Gibco Life Technologies, Grand Island, N.Y., USA) containing 10% heat-inactivated fetal bovine serum (FBS). Cells were incubated with […] autophagy detection agent (Dojindo Co., Kumamoto, Japan) according to the manufacturer's protocol (https://www.dojindo.com/TechnicalManual/Manual_[…].pdf). The […]-treated cells were then incubated with vehicle (DMEM+10% heat-inactivated FBS containing the same amount of DMSO and distilled water present in the corresponding CPI-613 and chloroquine experiments), CPI-613 (added […] of a 5 mg/mL solution of CPI-613 in DMSO per mL of medium to provide a 1 μg/mL concentration of CPI-613 in the medium), or the combination of CPI-613 (1 μg/mL as above) and chloroquine (added 2 μL of a 5 mg/mL solution of chloroquine in distilled water per mL of medium to provide a 10 μg/mL concentration of chloroquine in the medium) at 37° C. under 5% CO2 for 16 hours, and then visualized under a confocal fluorescence microscope (Leica TCS SP8; Leica Corporation, Germany) and analyzed with a Guava Easy-Cyte cell analyzer ([…], Calif., USA).

[2] = system: human H460 NSCLC xenografts; assay: Human non-small cell lung cancer xenograft, oral dosing; type: in vivo, CD1-Nu/Nu female mice; conditions: oral 100 mg/kg on day 8, 15, 22, 29 post implantation
Procedure: Human H460 NSCLC cells were obtained from American Type Cell Culture (ATCC) (catalog no. HTB-177, Manassas, Va.). These cells tested negative for viral contamination using the Mouse Antibody Production (MAP) test, performed by Charles River Labs Molecular Division, upon the receipt of the tumor cells from ATCC. The tumor cells were maintained at 37° C. in a humidified 5% CO2 atmosphere in T225 tissue culture flasks containing 50 mL of Roswell Park Memorial Institute (RPMI)-1640 solution with 10% Fetal Bovine Serum (FBS) and 2 mM L-glutamine. Cells were split at a ratio of 1:10 every 2-3 days by trypsinization and resuspended in fresh medium in a new flask. Cells were harvested for experiments in the same way at 70-90% confluency.
CD1-Nu/Nu female mice, ˜4-6 weeks old were obtained from Charles River Laboratories. Mice were housed 5 to a cage in a micro-isolator room in the Department of Animal Laboratory Research of New York State University (SUNY) at Stony Brook. Light-dark cycles were 12 h each daily, with light from 7 a.m. to 7 p.m. […]
An acclimation period of 7 days was allowed between the arrival of the animal at the study site before tumor inoculation and experimentation. […] Tumor dimensions (length and width) were measured daily before, during and after treatment (using Vernier calipers) and the tumor volume was calculated using the prolate ellipsoid formula: (length×width^2)/2. […]

[3] = system: BxPC-3 pancreatic cancer xenografts; assay: Human pancreatic cancer xenograft, oral dosing; type: in vivo, CD-1 nude mice; conditions: oral dose of 100 mg/week for 4 weeks
Procedure: An acclimation period of 7 days was allowed between the arrival of the animal at the study site before tumor inoculation and experimentation. Mice were inoculated subcutaneously (SC) in the right flank with 2×10^6 human H460 NSCLC or BxPC3 pancreatic cancer cells that were suspended in 0.1 mL of Dulbeco's Phosphate Buffered Salt (PBS) solution using a 1 cc syringe with a 27-5/8 gauge needle. Tumor dimensions (length and width) were measured daily before, during and after treatment (using Vernier calipers) and the tumor volume was calculated using the prolate ellipsoid formula: (length×width^2)/2. Treatment with test or control articles began 8 days post tumor cell implantation when the tumor was approximately 300 mm^3.
A similar study was conducted in CD-1 nude mice (n=9) inoculated with 2×10^6 BxPC-3 cells. The study was initiated when tumors reached an average size of 150 mm^3 (day 0) and CPI-613 was administered at an oral dose of 100 mg/week for 4 weeks. A comparator arm (n=9) was conducted with IP treatment at a weekly dose of 25 mg/kg.

[4] = Plasma pharmacokinetics and oral bioavailability of formulations; design: species or system BALB/c nude mice; conditions: mouse, in vivo
Procedure: Six groups of 16 BALB/c nude mice (8 males and 8 females) per group were administered 6,8-bis-benzylthio-octanoic acid in six different ways: (1) 5 μL/g IV injection (tail vein) of the triethanolamine/dextrose aqueous solution of Example 18 (25 mg/kg; 5 mL/kg; Ex. 18A); (2) 5 μL/g IP injection of the triethanolamine/dextrose aqueous solution of Example 18 (25 mg/kg; 5 mL/kg; 18A); (3) 5 μL/g oral administration of the Eudragit L100 SDD suspension of Example 18 (100 mg/kg; 5 mL/kg; 18B); (4) 5 μL/g oral administration of the HPMCAS-M SDD suspension of Example 18 (100 mg/kg; 5 mL/kg; 18C); (5) 5 μL/g oral administration of the 20 mg/mL 6,8-bis-benzylthio-octanoic acid suspension of Example 18 (100 mg/kg; 5 mL/kg; 18D); or (6) 10 μL/g oral administration of the 10 mg/mL SOLUTOL solution of Example 18 (100 mg/kg; 10 mL/kg; 18E). In each experiment, about 80 μL of blood was collected from one subgroup of 4 male and 4 female mice at 0.083, 1, 4, and 24 hours after dosing, and from the other subgroup of 4 male and 4 female mice at 0.5, 2, and 8 hours. Plasma from the collected blood samples was analyzed by LC-MS/MS for the presence of 6,8-bis-benzylthio-octanoic acid.

[5] = Animal studies of IV administration (toxicity); type: in vivo
Procedure: CPI-613 must be administered IV, via an IV catheter that is free flowing and free of air in the dead space of the IV catheter, to minimize vascular irritation, inflammation and acute toxicity of CPI-613. […] To avoid local reactions at and around the site of administration, CPI-613 must be administered via a central venous catheter.
CPI-613 must not be administered as a bolus, but by infusion, at a rate of ˜0.5 mL/min, via a central venous catheter with D5W running at a rate of about 125-150 mL/hr. This is to minimize potential acute toxicity of CPI-613, according to animal studies.

[6] = Pardee et al., Clin Cancer Res. 2014; cited from earlier work
HS-MM cells [7] = assay: Annexin V / propidium iodide cell death staining in HS-MM cells; type: cell-based; conditions: necrostatin-1 5, 10 or 50 μM with CPI-613 1 μg/mL + chloroquine 10 μg/mL
Procedure: HS-MM cells (Sonobe H. et al., J. Pathol., 1993, 169, 317-322; Sonobe H. et al., J. Pathol., 1999, 187, 594-597) were cultured with Dulbecco's modified Eagle's medium (DMEM; Gibco Life Technologies, Grand Island, N.Y., USA) containing 10% heat-inactivated fetal bovine serum (FBS). Cells were incubated with vehicle (DMEM+10% heat-inactivated FBS containing the same amount of DMSO and distilled water present in the corresponding CPI-613, chloroquine, and necrostatin-1 experiments), chloroquine (10 μg/mL), CPI-613 (1 μg/mL or 10 μg/mL), the combination of chloroquine (10 μg/mL) and CPI-613 (100 ng/mL, 1 μg/mL, or 10 μg/mL), or the combination of chloroquine (10 μg/mL) and CPI-613 (1 μg/mL) in the presence of necrostatin-1 (5 μM, 10 μM, or 50 μM), and then double stained with a fluorescein isothiocyante (FITC)-conjugated Annexin V and propidium iodide (PI) (PromoCell GMbH, Heidelberg, Germany) followed by analysis with a confocal fluorescence microscope and cell analyzer. The chloroquine and CPI-613 were added to the media from 5 mg/mL stock solutions in distilled water or DMSO, respectively, as in Example 11. The necrostatin-1 was added to the media from a 5 mg/mL stock solution in DMSO.

O=C(O)CCCCC(CCSCc1ccccc1)SCc1ccccc1 (stereo not shown) [6,8-bis-benzylthio-octanoic acid]
induction of autophagy (LC3-II blot) (K562 and MFL2 AML cells): induces autophagy in AML cells
induction of autophagy (DALGreen fluorescence) (HS-MM cells [1]; CPI-613 1 μg/mL): induces autophagy in HS-MM cells
tumor growth versus 5% dextrose or untreated [2]: grew much more slowly
tumor growth effect [3]: especially pronounced
oral bioavailability (conclusion in words) [4]: orally bioavailable
acute toxicity with extra air in dead space of IV catheter ([5]; accidental co-administration of air during IV administration, animal studies): potential to induce acute toxicity
local reaction on leakage into the perivascular space ([5]; in vivo, iv): can induce significant local inflammation
half-life after IV dosing [6]: 1 to 2 h

CCN(CC)CCCC(C)Nc1ccnc2cc(Cl)ccc12 (stereo not shown) [chloroquine, reference compound]
blocking of CPI-613 autophagy induction (HS-MM cells [1]; chloroquine 10 μg/mL with CPI-613 1 μg/mL): autophagy induction can be blocked

CN1C(=O)C(Cc2c[nH]c3ccccc23)NC1=S (stereo not shown) [necrostatin-1]
effect on cell death induced by CPI-613 plus chloroquine (HS-MM cells [7]): did not affect cell death
